Measurements taken from US20030215564A1, “Method and apparatus for coating an endoprosthesis” (priority 2002, published 2003).

Tests used:
Format in all cases: physicochemical
[1] = Amount of paclitaxel deposited on Palmaz-Schatz stents, manual coating method (HPLC)
Protocol: In this example, Palmaz-Schatz stents were coated with paclitaxel using a manual method. The amount of paclitaxel deposited was then determined.
Each stent was then removed from the reservoir, shaken briskly, and allowed to dry. […] The solvent system consisted of 45% acetonitrile and 55% water delivered by a pair of Gilson 305/306 pumps with a flow rate of 1.5 ml/minute.

[2] = Effect of crimping on amount of paclitaxel on spin-coated stents (HPLC)
Source text: Each stent was then removed from the reservoir, shaken briskly, and allowed to dry.

[3] = Effect of stent expansion on paclitaxel content of spin-coated stents (HPLC); details: spin-coated 12,000 RPM two seconds, 44 mg/ml ethanolic paclitaxel
Source text: After a stent is crimped onto a catheter as in example 4, it is ready for deployment in the body. The stent is properly positioned with a catheter, and is then expanded, for example by inflation of a balloon tip around which the stent is mounted. The balloon inflation expands the stent and forces it into proper position in the wall of the hollow organ. This has an additional physical impact on the stent, and has the potential to further degrade its coating.

[4] = Effect of crimping on amount of paclitaxel on manually coated stents (HPLC); details: manual coating, after crimping
Source text: Prior to being deployed inside a blood vessel, some vascular stents must be crimped onto a balloon-tipped catheter. Once the stent is positioned on the catheter, the catheter-stent assembly is advanced in the blood vessel to the site of obstruction. The balloon is then expanded, which deploys the stent in its proper position.
Since the manual coating method leads to uneven, fragile coating (see Examples 1-3), it seemed likely that the process of crimping would exacerbate the problem of flaking and drug loss. To demontstrate this problem, the amount of paclitaxel on stents before and after crimping was determined. […] Each stent was then removed from the reservoir, shaken briskly, and allowed to dry.

## CC(=O)O[C@H]1C(=O)[C@@]2(C)[C@H]([C@H](OC(=O)c3ccccc3)[C@]3(O)C[C@H](OC(=O)[C@H](O)[C@@H](NC(=O)c4ccccc4)c4ccccc4)C(C)=C1C3(C)C)[C@]1(OC(C)=O)CO[C@@H]1C[C@@H]2O [Paclitaxel, paclitaxel]
[1]; paclitaxel 13 mg/ml in 95% ethanol
  Amount of drug deposited (mean ± standard deviation): 19.5 ± 7.7 µg
[1]; paclitaxel 27 mg/ml in 95% ethanol
  Amount of drug deposited (mean ± standard deviation): 59.8 ± 17.6 µg
[1]; paclitaxel 37 mg/ml in 95% ethanol
  Amount of drug deposited (mean ± standard deviation): 80.4 ± 27.7 µg
[1]; paclitaxel 42 mg/ml in 95% ethanol
  Amount of drug deposited (mean ± standard deviation): 141.3 ± 43.0 µg
[1]; paclitaxel 66 mg/ml in 95% ethanol
  Amount of drug deposited (mean ± standard deviation): 198.3 ± 72.0 µg
[2]; paclitaxel 18 mg/ml
  Amount of drug—crimped (mean ± standard deviation): 6.4 ± 2.1 µg
[2]; paclitaxel 28 mg/ml
  Amount of drug—crimped (mean ± standard deviation): 12.6 ± 1.2 µg
[3]; crimp-mounted, expanded in water
  paclitaxel amount, expanded stent: 26.9 µg
[3]; unexpanded
  mean paclitaxel amount, unexpanded stents: 32.8±5.9 μg/stent
[4]; paclitaxel 37 mg/ml
  Amount of drug—crimped (mean ± standard deviation): 57.9 ± 33.0 µg
[4]; paclitaxel 42 mg/ml
  Amount of drug—crimped (mean ± standard deviation): 127.1 ± 34.6 µg
[4]; paclitaxel 66 mg/ml
  Amount of drug—crimped (mean ± standard deviation): 106.3 ± 53.8 µg
